Measured values from ChEMBL document CHEMBL1201862, “PubChem BioAssay data set” (2004).
Active and inactive are the calls of the source.

Legend:
[1] = inhibitors of Vif binding to APOBEC3G peptide, primary screen, biochemical, TR-FRET, GST-Vif 1-94, biotin-A3G peptide, dose response retest (AID 1117319); type: functional;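 further: TR-FRET signal of purified GST-Vif binding a biotinylated A3G peptide; inhibitors lower the FRET signal by blocking Vif and A3G binding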
Large T antigen = Large T antigen (Simian virus 40, UniProt P03070); type: functional, Betapolyomavirus macacae;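 further: Confirmatory-stage PubChem screen for compounds that inhibit SV40 T antigen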
Chain of Large T antigen (P03070 whole entry): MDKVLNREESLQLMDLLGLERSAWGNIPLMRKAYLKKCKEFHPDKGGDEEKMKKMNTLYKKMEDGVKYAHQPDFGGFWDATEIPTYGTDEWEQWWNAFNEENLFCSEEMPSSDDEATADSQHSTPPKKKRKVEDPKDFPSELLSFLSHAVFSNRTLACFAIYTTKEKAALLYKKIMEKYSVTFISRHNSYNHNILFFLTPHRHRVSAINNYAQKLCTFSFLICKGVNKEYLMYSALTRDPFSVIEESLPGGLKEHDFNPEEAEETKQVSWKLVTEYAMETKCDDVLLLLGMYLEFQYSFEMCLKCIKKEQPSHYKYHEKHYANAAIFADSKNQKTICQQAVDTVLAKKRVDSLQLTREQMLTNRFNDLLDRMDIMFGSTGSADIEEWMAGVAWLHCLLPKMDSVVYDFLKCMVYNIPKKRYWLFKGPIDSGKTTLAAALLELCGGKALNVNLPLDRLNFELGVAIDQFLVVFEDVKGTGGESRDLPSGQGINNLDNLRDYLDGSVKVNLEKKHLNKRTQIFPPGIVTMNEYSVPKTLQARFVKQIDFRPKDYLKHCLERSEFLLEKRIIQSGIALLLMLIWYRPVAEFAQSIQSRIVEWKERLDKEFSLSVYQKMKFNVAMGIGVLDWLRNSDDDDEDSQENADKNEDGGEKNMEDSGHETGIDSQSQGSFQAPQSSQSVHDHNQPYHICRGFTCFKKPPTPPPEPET

[2] = Luminescence Cell-Based Dose Response HTS to Identify Inhibitors of 5'UTR Stem-Loop Driven Prion Protein mRNA Translation in H4 Neuroglioblastoma Cells. [Related pubchem assays: 1827 (Project Summary), 1813 (Primary HTS)]; type: functional
BJ [3] = test: cells; type: functional, cell-based; details: Homo sapiens
[4] = inhibitors of SNCA 5'UTR-driven reporter translation, confirmation, H4 neuroglioma cells, luminescence (AID 1988); type: functional, cell-based
[5] = inhibitors of firefly luciferase expression or activity, dose response, H4 neuroglioma cells, luminescence (AID 1990); type: functional, cell-based
[6] = inhibitors of PGC1a acetylation in cells, dose response, cell-based, cherry-picked samples (AID 720514); type: functional;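 further: potency may reflect raised or lowered acetylation signal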
BJ [7] = test: cytotoxicity toward BJ-TERT-LT-ST fibroblasts, dose response, cell-based, RAS-independent, luminescence (AID 1935); type: functional; details: Homo sapiens;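 further: BJ fibroblasts immortalized with TERT plus LT and ST oncogenes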
[8] = cytotoxicity toward DRD oncogenic fibroblasts, dose response, cell-based, non-viral oncogenic, luminescence (AID 1934); type: functional; details: Homo sapiens
BJ [9] = test: cytotoxicity toward BJ-TERT fibroblasts, dose response, cell-based, RAS-independent, luminescence (AID 1933); type: functional; details: Homo sapiens
[10] = target: E3 ubiquitin-protein ligase Mdm2 (Homo sapiens, UniProt Q00987); test: enhancers of MDM2-luciferase reporter signal, concentration-effect titration, project on inhibitors of MDM2 ubiquitin ligase, cellular assay, luminescent readout, 384-well plate format (AID 1394); type: functional;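 further: MDM2 E3 inhibitors raise luminescence so EC50 is for signal enhancement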
Chain of E3 ubiquitin-protein ligase Mdm2 (Q00987 whole entry): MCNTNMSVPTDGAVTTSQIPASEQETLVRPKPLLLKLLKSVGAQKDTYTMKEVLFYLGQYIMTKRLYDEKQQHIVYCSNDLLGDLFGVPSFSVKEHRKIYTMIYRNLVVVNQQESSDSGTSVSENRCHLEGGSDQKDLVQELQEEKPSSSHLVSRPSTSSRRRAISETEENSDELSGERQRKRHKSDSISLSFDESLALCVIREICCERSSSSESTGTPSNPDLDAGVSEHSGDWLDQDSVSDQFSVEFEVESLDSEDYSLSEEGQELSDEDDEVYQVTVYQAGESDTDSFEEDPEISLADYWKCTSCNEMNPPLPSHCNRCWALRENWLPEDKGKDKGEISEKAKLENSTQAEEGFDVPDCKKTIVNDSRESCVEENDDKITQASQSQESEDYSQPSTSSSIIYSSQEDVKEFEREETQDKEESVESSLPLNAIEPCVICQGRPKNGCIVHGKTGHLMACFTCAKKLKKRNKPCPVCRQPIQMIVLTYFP

Hexokinase HKDC1 = target: T1, Hexokinase HKDC1 (Homo sapiens, UniProt Q2TB90); test: HKDC1 hexokinase inhibitors, dose response, biochemical, W721R variant (AID 504729); type: functional
T1 sequence (Q2TB90 whole entry): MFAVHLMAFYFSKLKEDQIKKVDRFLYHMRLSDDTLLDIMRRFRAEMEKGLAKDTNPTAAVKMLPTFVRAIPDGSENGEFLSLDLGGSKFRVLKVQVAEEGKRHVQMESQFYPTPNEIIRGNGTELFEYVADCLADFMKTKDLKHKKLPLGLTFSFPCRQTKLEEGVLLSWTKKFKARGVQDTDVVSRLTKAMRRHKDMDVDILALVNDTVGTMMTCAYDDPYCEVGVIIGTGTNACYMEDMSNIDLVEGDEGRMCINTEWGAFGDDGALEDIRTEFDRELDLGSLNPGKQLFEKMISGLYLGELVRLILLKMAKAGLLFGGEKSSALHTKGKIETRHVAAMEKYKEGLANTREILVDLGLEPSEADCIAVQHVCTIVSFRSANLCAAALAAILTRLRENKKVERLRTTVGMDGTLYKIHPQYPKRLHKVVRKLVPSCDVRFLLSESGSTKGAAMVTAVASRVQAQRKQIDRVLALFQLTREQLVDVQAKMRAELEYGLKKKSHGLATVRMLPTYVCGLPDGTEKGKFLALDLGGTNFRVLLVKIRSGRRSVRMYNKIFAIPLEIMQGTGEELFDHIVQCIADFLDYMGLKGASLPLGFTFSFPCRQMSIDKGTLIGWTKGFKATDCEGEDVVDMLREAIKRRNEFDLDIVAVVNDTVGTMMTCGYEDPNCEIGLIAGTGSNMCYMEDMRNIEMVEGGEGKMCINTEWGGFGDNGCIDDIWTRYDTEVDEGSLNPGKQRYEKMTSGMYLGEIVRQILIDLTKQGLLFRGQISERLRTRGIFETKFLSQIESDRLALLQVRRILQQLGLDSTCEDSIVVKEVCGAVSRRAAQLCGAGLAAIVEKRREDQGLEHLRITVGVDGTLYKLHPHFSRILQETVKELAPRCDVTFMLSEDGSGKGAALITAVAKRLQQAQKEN

Bcl-2-related protein A1 = target: T2, Bcl-2-related protein A1 (Mus musculus, UniProt Q07440); type: functional;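 further: confirmatory dose–response counterscreen on Bfl-1, used to check hits from a UBC13 polyubiquitin inhibitor campaign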
T2 sequence (Q07440 whole entry): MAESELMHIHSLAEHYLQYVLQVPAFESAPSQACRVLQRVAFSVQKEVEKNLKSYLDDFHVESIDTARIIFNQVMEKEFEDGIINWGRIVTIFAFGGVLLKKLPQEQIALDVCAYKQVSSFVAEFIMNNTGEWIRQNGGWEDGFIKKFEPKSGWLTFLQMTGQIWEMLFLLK

Paired box protein Pax-8 = Paired box protein Pax-8 (Homo sapiens, UniProt Q06710); test: inhibitors of PAX8-driven TPO luciferase reporter, dose response, RMG-I cells, cherry-pick (AID 687027); type: functional, cell-based;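 further: luciferase reporter driven by Pax8 target thyroperoxidase promoter measured by SteadyGlo luminescence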
Chain of Paired box protein Pax-8 (Q06710 whole entry): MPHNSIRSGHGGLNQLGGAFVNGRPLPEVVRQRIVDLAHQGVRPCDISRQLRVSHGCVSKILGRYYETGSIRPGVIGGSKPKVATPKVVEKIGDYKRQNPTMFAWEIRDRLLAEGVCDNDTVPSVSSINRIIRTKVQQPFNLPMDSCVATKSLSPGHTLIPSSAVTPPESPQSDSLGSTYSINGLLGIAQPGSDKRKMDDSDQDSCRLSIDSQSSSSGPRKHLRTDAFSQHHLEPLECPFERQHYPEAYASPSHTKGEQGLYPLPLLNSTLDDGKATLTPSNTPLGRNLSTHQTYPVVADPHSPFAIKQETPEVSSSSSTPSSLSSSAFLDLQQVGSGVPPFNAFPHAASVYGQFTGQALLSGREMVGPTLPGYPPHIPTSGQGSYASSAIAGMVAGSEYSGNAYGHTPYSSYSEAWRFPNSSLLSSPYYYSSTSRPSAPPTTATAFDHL

[11] = Luminescence Cell-Based Dose Retest to Confirm Inhibitors of Cancer Stem Cells. [Related pubchem assays (depositor defined):AID2717, AID2721]; type: functional; details: Homo sapiens
[12] = target: T3, Ubiquitin-conjugating enzyme E2 N (Homo sapiens, UniProt P61088); type: functional
T3 sequence (P61088 whole entry): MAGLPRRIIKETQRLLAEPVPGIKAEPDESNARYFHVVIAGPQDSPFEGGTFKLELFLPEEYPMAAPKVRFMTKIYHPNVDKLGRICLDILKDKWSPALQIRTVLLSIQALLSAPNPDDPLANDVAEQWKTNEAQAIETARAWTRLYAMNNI

[13] = target: T3, Ubiquitin-conjugating enzyme E2 N; type: functional; remark: listed apart in the source
[14] = non-specific cell cytotoxicity, dose response, cytotoxicity control for PAX8 inhibitor project, plate reader, dry powder samples (AID 743021); type: functional, cell-based
[15] = target: T4, DNA repair protein RAD52 homolog (Homo sapiens, UniProt P43351); type: functional, biochemical
T4 sequence (P43351 whole entry): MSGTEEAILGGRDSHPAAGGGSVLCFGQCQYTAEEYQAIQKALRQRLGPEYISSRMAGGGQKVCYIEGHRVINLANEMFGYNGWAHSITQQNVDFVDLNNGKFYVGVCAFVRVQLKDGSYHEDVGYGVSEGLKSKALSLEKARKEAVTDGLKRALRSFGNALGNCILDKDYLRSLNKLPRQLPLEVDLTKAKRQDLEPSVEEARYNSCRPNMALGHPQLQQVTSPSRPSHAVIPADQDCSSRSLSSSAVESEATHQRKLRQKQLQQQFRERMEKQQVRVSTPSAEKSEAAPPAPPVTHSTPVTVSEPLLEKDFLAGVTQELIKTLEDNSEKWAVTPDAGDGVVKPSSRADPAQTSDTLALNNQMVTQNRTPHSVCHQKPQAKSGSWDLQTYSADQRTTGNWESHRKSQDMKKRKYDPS

[16] = NIH-3T3 fibroblast cytotoxicity, dose response, cytotoxicity control, cell-based, fluorescence, Alamar Blue, secondary assay (AID 2327); type: functional;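 further: NIH-3T3 mouse fibroblasts cultured with fluconazole at 8 µg/mL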
[17] = C. albicans growth with fluconazole, confirmation, fluorescence, retest (AID 2467); type: functional, cell-based
[18] = target: Eukaryotic translation initiation factor 4E (Mus musculus, UniProt P63073); test: eIF4E–eIF4G protein interaction inhibitors, dose response, biochemical, TR-FRET (AID 855); type: functional;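 further: potency for disrupting eIF4E binding to eIF4GI seen as loss of FRET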
Chain of Eukaryotic translation initiation factor 4E (P63073 whole entry): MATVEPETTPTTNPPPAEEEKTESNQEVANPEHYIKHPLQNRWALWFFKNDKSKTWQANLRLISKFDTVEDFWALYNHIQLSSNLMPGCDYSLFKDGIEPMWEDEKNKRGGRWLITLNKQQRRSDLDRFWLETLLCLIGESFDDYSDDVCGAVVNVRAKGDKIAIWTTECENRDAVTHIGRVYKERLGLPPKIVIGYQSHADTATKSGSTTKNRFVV

[19] = Luminescence Cell-Based Dose Confirmation HTS to Identify Activators of 5'UTR Stem-Loop Driven Alpha-Synuclein mRNA Translation in H4 Neuroglioblastoma Cells. [Related pubchem assays: 1829 (Project Summary), 1814 (Primary HTS)]; type: functional
H4 = test: Luminescence Cell-Based Dose Response HTS to Identify Activators of 5'UTR Stem-Loop Driven Prion Protein mRNA Translation in H4 Neuroglioblastoma Cells. [Related pubchem assays: 1829 (Project Summary), 1814 (Primary HTS)]; type: functional; details: Homo sapiens
[20] = Luminescence Cell-Based Dose Response HTS to Identify Activators of Luciferase Translation or Activity in H4 […] Cells. [Related pubchem assays: 1829 (Project Summary), 1814 (Primary HTS)]; type: functional
[21] = LGR2 antagonists, dose response, cell-based, HEK293, CRE-luciferase reporter, cherry pick, set 2 (AID 743343); type: functional;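 further: transfected cells were stimulated with diluted bursicon conditioned medium after compound addition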
[22] = HepG2 cell cytotoxicity, dose response, cytotoxicity control, plate reader, cherry-pick, antagonist series (AID 743416); type: functional, cell-based
[23] = A549 cell cytotoxicity, dose response, cytotoxicity control, plate reader, cherry-pick, antagonist series (AID 743412); type: functional, cell-based
[24] = MC4R antagonists, dose response, counter-screen for LGR2 antagonist project, cell-based, plate reader, cherry pick (AID 743444); type: functional;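 further: transfected HEK 293 cells stimulated with alpha-MSH peptide; potency of inhibitors of the alpha-MSH evoked signal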
[25] = HEK293 cell cytotoxicity, dose response, cytotoxicity control, plate reader, cherry-picked samples (AID 743446); type: functional, cell-based
[26] = HepG2 cell cytotoxicity, dose response, cytotoxicity control, cherry-picked samples (AID 1159577); type: functional, cell-based
[27] = P. falciparum Dd2 growth inhibitors, dose response, SYBR Green, cherry-picked samples (AID 1159567); type: functional, cell-based
[28] = off-target signal loss in HeLa-CEM21 co-culture – HeLa F-luc CTL cells, cherry-picked, counter-screen for HIV-1 Env fusion inhibitor project, dose response (AID 652040); type: functional, cell-based;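 further: potency for signal decrease marking cytotoxic or nonspecific inhibition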
[29] = inhibitors of clade B AD8 Env fusion, dose response, cell-based, cherry-pick (AID 652062); type: functional;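 further: luciferase signal from cell-cell fusion driven by HIV-1 clade B AD8 Env; potency is for inhibitors of fusion seen as a drop in luminescence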
[30] = inhibitors of HIV Env-driven cell fusion, dose response, cherry-pick (AID 652057); type: functional, cell-based
[31] = CEM21 lymphoblast cell cytotoxicity, dose response, cytotoxicity control for viral fusion inhibitor project, CellTiter-Glo luminescence, cherry-picked (AID 652042); type: functional, cell-based;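 further: potency for signal decrease meaning cytotoxicity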
[32] = A Cell Based Secondary Assay To Explore Cytotoxicity of Compounds that Sensitize Mycobacterium Tuberculosis to Beta-Lactam Antibiotics.; type: functional

SMILES: Cc1ccc(CNC(=O)C2c3ccccc3C(=O)N3CCc4ccccc4C23)o1 (stereo unspecified)
- IC50 [1]: > 100 µM (active)

SMILES: COc1cc([N+](=O)[O-])ccc1NC(=O)Oc1ccc(NC(C)=O)cc1
- IC50 [1]: > 100 µM (active)
- IC50 (Large T antigen): 8.79 µM (active)

SMILES: CCOc1ccc(N(CC(=O)Nc2ccccc2OC)S(=O)(=O)c2ccccc2)cc1
- EC50 [2]: 0.36 µM (active)
- EC50 (BJ [3]): 20.3 µM (active)
- EC50 [4]: 0.323 µM (active)
- EC50 [5]: 4.97 µM (active)
- AC50 [6]: 30.7 µM (active)
- EC50 (BJ [7]): 0.804 µM (active)
- EC50 [8]: 0.663 µM (active)
- EC50 (BJ [9]): 0.928 µM (active)

SMILES: COc1cccc(OC)c1C(=O)NNC(=O)c1cccc(COc2ccc3c(c2)CCC3)c1
- EC50 [10]: 0.0021 µM (active)

SMILES: COc1ccc(CN2C(=O)c3cccnc3C2O)cc1 (stereo unspecified)
- IC50 (Hexokinase HKDC1): 21.5 µM (inactive)

SMILES: CN1CCN(CCCNC(=O)c2ccc(/C=C3\Oc4ccccc4N(Cc4ccc(Cl)cc4)C3=O)cc2)CC1
- IC50 (Bcl-2-related protein A1): > 20 µM (inactive)
- AC50 (Paired box protein Pax-8): 16.9 µM (active)
- AC50 [11]: 3.55 µM (active)
- IC50 [12]: 1.35 µM (active)
- IC50 [13]: 12.4 µM (active)
- AC50 [14]: 0.974 µM (active)
- AC50 [15]: 17.9 µM (active)
- EC50 [16]: > 150 µM (inconclusive)
- EC50 [17]: > 38 µM (not active)

SMILES: CCCc1nc2oc3c(NCC4CCCO4)ncnc3c2c2c1COC(C)(C)C2 (stereo unspecified)
- IC50 (Hexokinase HKDC1): 33.2 µM (inactive)

SMILES: Cc1ccc(NC2c3ncccc3C(=O)N2c2ccccc2C)cc1C (stereo unspecified)
- IC50 [18]: 9.59 µM (active)
- IC50 (Hexokinase HKDC1): 11.6 µM (active)
- EC50 [19]: 12 µM (active)
- EC50 (H4): 9.38 µM (active)
- EC50 [20]: 16.5 µM (active)

SMILES: Cc1ccn2cc(-c3ccc(Br)cc3)nc2c1
- AC50 [21]: 3.6 µM (active)
- AC50 [22]: 49.2 µM (active)
- AC50 [23]: > 52 µM (inactive)
- AC50 [24]: 2.76 µM (active)
- AC50 [25]: 42.6 µM (active)

SMILES: Cc1cc(/C=N/n2cnnc2)c(C)n1-c1cccc(Cl)c1
- IC50 [1]: > 100 µM (active)

SMILES: OC[C@@H]1[C@@H](c2ccc(C#CC3CCCC3)cc2)[C@H]2CN(CCC(F)(F)F)CCCCN12
- AC50 [26]: 8.47 µM (active)
- AC50 [6]: 12.9 µM (active)
- AC50 [27]: 1.02 µM (active)

SMILES: CCOC(=O)c1cnc2ccc(OCC)cc2c1NCc1ccccc1OC
- AC50 [28]: 25.7 µM (active)
- AC50 [11]: 4.51 µM (active)
- AC50 [29]: 35.4 µM (active)
- AC50 [30]: 10.6 µM (active)
- AC50 [31]: 19.4 µM (active)

SMILES: O=C(CN1CCN(c2ncccn2)CC1)NCc1ccccc1
- EC50 [10]: 34 µM (not active)

SMILES: COc1ccc(-c2csc(NC(CO)c3nc4ccccc4n3Cc3ccc(C)cc3)n2)cc1 (stereo unspecified)
- CC50 [32]: > 40 µM (active)

SMILES: O=C(O)c1ccc2c(c1)N(Cc1ccccc1F)C(=O)c1ccccc1[S+]2[O-] (stereo unspecified)
- EC50 [10]: 237 µM (not active)

SMILES: CN(C)c1nc(SCCOC(=O)COc2ccc(Cl)cc2Cl)nc(N(C)C)n1
- AC50 [6]: 26.1 µM (active)
